Reference: patent US7569690B2, “Process for producing oxycarbonyl-substituted piperazine derivative” (Toray Fine Chemicals Co., Ltd., priority 2002, dated 2009)

Experiments:
[1] = Thermal stability of the oxycarbonyl-substituted piperazine derivative (standing at temperature, liquid chromatography purity); type: physicochemical
Method: It was confirmed that the stability of the compound is greatly affected by the temperature and the heating time period.
It was noticed that when, for example, 1-benzyloxycarbonyl-3-methylpiperazine with a purity of 99.3 liquid chromatography area % was allowed to stand at 120° C., 160° C. or 200° C. for 12 hours, their liquid chromatography purity declined to 99.0 liquid chromatography area %, 95.6 liquid chromatography area % and 59.7 liquid chromatography area % respectively, and that the liquid chromatography purity of 1-benzyl-4-benzyloxycarbonyl-2-methylpiperazine corresponding to the compound represented by the general formula (7) rose to 0.2 liquid chromatography area %, 3.2 liquid chromatography area % and 30.7 liquid chromatography area % respectively.
Furthermore, when the compound was allowed to stand at 160° C. for 1 hour, the purity was 98.8 liquid chromatography area %, and it can be seen that the decomposition rate was small compared with the case of 12 hours.
For measuring the contents of the impurities contained in the oxycarbonyl-substituted piperazine derivative represented by the general formula (2), liquid chromatography is used. The analytical column for liquid chromatography used for analysis is a column using an octadecyl -based composition as a packing material. Particularly the use of Capcellpak C18, 120 angstroms, 5 μm, 4.6 mm×150 mm (Shiseido) is desirable.
The mobile phase is 5 mM sodium dodecyl sulfate (hereinafter abbreviated as SDS) aqueous solution (pH 2.5, phosphoric acid)/acetonitrile, and a gradient method for changing the composition with the lapse of time is used for analysis. That is, the acetonitrile content in the mobile phase is kept at 31 vol % from the start of analysis to 15 minutes later, and the acetonitrile content is then increased at a constant rate up to 45 vol %, taking 10 minutes, being kept at 45 vol % from 25 minutes later to 40 minutes later. The detector used is a UV measuring instrument, and the detection wavelength is 210 nm. The detection wavelength is very important, and if the detection wavelength is changed, the analyzed value may change. The reason is that the maximum wavelength of UV absorption changes depending on the compound. In this system, it is desirable that the wavelength is from 210 to 230 nm at which the ratios of the absorption sensitivity of the compound represented by the general formula (2) to the absorption sensitivities the compounds represented by the general formulae (5) to (8) are from 0.6 to 1.5. Analysis is made at a column oven temperature of 40° C. In the case where analysis is made under the above-mentioned analytical conditions, the retention times of 1-benzyloxycarbonyl-3-methylpiperazine and the impurities corresponding to the general formulae (5) to (8), i.e., 1,4-bis(carbobenzyloxy)-2-methylpiperazine, 1-benzyl-3-methylpiperazine, 4-benzyloxycarbonyl-1-benzyl-2-methylpiperazine and benzyl alcohol were 23.1 minutes, 31.0 minutes, 31.0 minutes, 30.0 minutes and 2.7 minutes respectively. The values of their area percentages can be used to obtain the impurity contents.

[2] = cited from earlier work

Liquid chromatography purity of decomposition product 1-benzyl-4-benzyloxycarbonyl-2-methylpiperazine after standing ([1]; 120° C. for 12 hours)	Liquid chromatography purity after standing ([1]; 120° C. for 12 hours, starting purity 99.3 liquid chromatography area %)	Liquid chromatography purity after standing ([1]; 160° C. for 1 hour)	Liquid chromatography purity of decomposition product 1-benzyl-4-benzyloxycarbonyl-2-methylpiperazine after standing ([1]; 160° C. for 12 hours)	Liquid chromatography purity after standing ([1]; 160° C. for 12 hours, starting purity 99.3 liquid chromatography area %)	Liquid chromatography purity of decomposition product 1-benzyl-4-benzyloxycarbonyl-2-methylpiperazine after standing ([1]; 200° C. for 12 hours)	Liquid chromatography purity after standing ([1]; 200° C. for 12 hours, starting purity 99.3 liquid chromatography area %)	SMILES	pKa [2]
0.2 liquid chromatography area %	99.0 liquid chromatography area %	98.8 liquid chromatography area %	3.2 liquid chromatography area %	95.6 liquid chromatography area %	30.7 liquid chromatography area %	59.7 liquid chromatography area %	CC1CN(C(=O)OCc2ccccc2)CCN1 (stereo not drawn) [1-benzyloxycarbonyl-3-methylpiperazine]	
							COc1ccccn1 [2-methoxypyridine]	6.62
							c1cn[nH]c1 [pyrazole]	2.5
